Source: patent US20240383908A1, “SYNTHESIS AND APPLICATION OF PHOSPHATASE DEGRADER” (HINOVA PHARMACEUTICALS INC., priority 2021, published 2024)

Assays:
SHP2 protein = target: T1, SHP2 protein (Homo sapiens, UniProt Q06124); assay: Degradation activity on SHP2 protein in MV-411 cells (Western blot, DC50); format: cell-based; set-up: endogenous in cells; details: MV411 cells, 24 hours, read-out: Degradation activity for differenct cell lines MV411 (DC50)
T1 sequence (Q06124 1-593): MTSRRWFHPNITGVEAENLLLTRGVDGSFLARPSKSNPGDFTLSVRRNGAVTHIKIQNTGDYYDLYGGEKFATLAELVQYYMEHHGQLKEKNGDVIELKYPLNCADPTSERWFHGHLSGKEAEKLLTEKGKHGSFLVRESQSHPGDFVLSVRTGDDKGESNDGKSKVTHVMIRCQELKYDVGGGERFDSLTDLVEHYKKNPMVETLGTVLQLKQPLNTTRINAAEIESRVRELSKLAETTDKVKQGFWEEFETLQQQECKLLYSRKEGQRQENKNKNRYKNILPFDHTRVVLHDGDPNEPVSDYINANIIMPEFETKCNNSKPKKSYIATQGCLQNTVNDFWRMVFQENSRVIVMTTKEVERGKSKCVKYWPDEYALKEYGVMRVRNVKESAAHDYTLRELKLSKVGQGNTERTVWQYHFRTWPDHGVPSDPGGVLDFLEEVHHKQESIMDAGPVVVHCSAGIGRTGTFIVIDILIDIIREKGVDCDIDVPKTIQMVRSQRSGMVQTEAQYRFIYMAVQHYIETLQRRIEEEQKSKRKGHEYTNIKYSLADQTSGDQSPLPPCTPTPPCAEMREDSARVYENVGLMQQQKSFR
In short: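 Western blot of SHP2 (GAPDH loading control, 30 μg protein/lane) in lysates of MV-411 cells exposed 24 h to final compound concentrations of 100, 10, 3, 1, 0.3 and 0.1 nM (0.1% DMSO). Degradation relative to DMSO set at 100%; DC50 derived by curve fitting.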

MIA Paca-2 = assay: Inhibition of cell proliferation, MIA Paca-2 (CCK-8); format: cell-based; details: Homo sapiens, MIA Paca-2 cells, read-out: Inhibition activity on the proliferation of different cell lines MIA Paca-2 (IC50)
Procedure: (1) MV-411 cells were cultured in the cell culture medium, and then well-growing cells were selected and inoculated in a 96-well plate at 80 μL/well, with 2×10^4 cells/well. The plate was incubated overnight in a 5% CO2 cell incubator at 37° C.
(2) 10 mM storage solution of each drug was prepared using dimethylsulfoxide (DMSO). The stock solution was diluted in a ratio of 1:3 with DMSO before use, and then the solution was serially diluted in a ratio of 1:3, to obtain 9 gradient concentrations. Each concentration was further diluted with the medium in a ratio of 1:200 (to ensure that the DMSO concentration in the culture system was 0.1%). Two wells were set for each concentration. 20 μL of each compound solution was added to the cell culture well (with a final concentration of 10 μM, 3.3 μM, 1.1 μM . . . ). The plate was gently shaken and mixed. Additionally, 3 negative control wells (only containing cells) and 3 blank control wells (only containing the medium) were included (6 wells were each added with 20 μL of DMSO diluted with the medium in a ratio of 1:200).
(1) After 5 days of cultivation, 10 μL of CCK-8 was added to each well, and then the plate was further cultured for 3 h at 37° C. in a 5% CO2 cell incubator.
(2) The absorbance (OD value) was measured at 450 nm with a multifunctional microplate reader. (3) The data were analyzed using the Dose-response-inhibition equation in GraphPad Prism8 software to obtain the IC50 value.
Using a similar method, the IC50 value (nM) for the inhibitory activity of the compound according to the present invention against different cell lines was obtained, and the results are shown in Table 3 (++++: IC50>5 μM; +++: 1 μM<IC50<5 μM; ++: IC50<1 μM).

Row | SMILES | DC50 (SHP2 protein) | IC50 (MIA Paca-2)
1 | CC1(N)CCN(c2cnc(Sc3cccc(NC(=O)CCCCCCCCN4CCN(c5ccc(C(=O)NCc6ccc7c(c6)CN(C6CCC(=O)NC6=O)C7=O)nn5)CC4)c3)cn2)CC1 (stereo not drawn) [Compound 63] | < 0.1 µM | 1 to 5 µM
2 | CC1(N)CCN(c2cnc(Sc3cccc(NC(=O)CCCCCCCCN4C5CCC4CN(c4ccc(C(=O)NCc6ccc7c(c6)CN(C6CCC(=O)NC6=O)C7=O)nn4)C5)c3)cn2)CC1 (stereo not drawn) [Compound 119] | < 0.1 µM | 1 to 5 µM
3 | Cc1ncsc1-c1ccc([C@H](C)NC(=O)[C@@H]2C[C@@H](O)CN2C(=O)[C@@H](NC(=O)CCCCCCCCN2CCN(C(=O)CCC(=O)Nc3cccc(Sc4ncc(N5CCC(C)(N)CC5)nc4N)c3Cl)CC2)C(C)(C)C)cc1 [Compound 999] | < 0.1 µM | 1 to 5 µM
4 | NC1(CO)CCN(c2cnc(Sc3cccc(NC(=O)CCCCCCN4CC5(CCN(c6ccc(C(=O)NCc7ccc8c(c7)CN(C7CCC(=O)NC7=O)C8=O)nn6)C5)C4)c3)cn2)CC1 (stereo not drawn) [Compound 168] | < 0.1 µM | 1 to 5 µM
5 | CCC1(N)CCN(c2cnc(Sc3cccc(NC(=O)CCCCCCN4CC5(CCN(c6ccc(C(=O)NCc7ccc8c(c7)CN(C7CCC(=O)NC7=O)C8=O)nn6)C5)C4)c3)cn2)CC1 (stereo not drawn) [Compound 161] | < 0.1 µM | 1 to 5 µM
6 | CC1(N)CCN(c2cnc(Sc3cccc(NC(=O)CCCCCCCCN4CCN(c5ccc(C(=O)NCc6ccc7c(c6)CN(C6CCC(=O)NC6=O)C7=O)nn5)CC4C(F)(F)F)c3)cn2)CC1 (stereo not drawn) [Compound 174] | < 0.1 µM | 1 to 5 µM
